Data as given in ChEMBL document CHEMBL4507259 (2021).

Assays:
[1] = target: BDNF/NT-3 growth factors receptor (Homo sapiens) (UniProt Q16620); conditions: Compound concentration 1000.0 nM
[2] = target: Ephrin type-A receptor 2 (Homo sapiens) (UniProt P29317); conditions: Compound concentration 1000.0 nM
[3] = target: Muscle, skeletal receptor tyrosine-protein kinase (Homo sapiens) (UniProt O15146); conditions: Compound concentration 1000.0 nM
[4] = target: Serine/threonine-protein kinase TAO3 (Homo sapiens) (UniProt Q9H2K8); conditions: Compound concentration 1000.0 nM
[5] = tested on: Epidermal growth factor receptor (Homo sapiens), P00533 [UNDEFINED MUTATION]; conditions: Compound concentration 1000.0 nM
[6] = target: Ephrin type-B receptor 4 (Homo sapiens) (UniProt P54760); conditions: Compound concentration 1000.0 nM
[7] = target: Mitotic checkpoint serine/threonine-protein kinase BUB1 (Homo sapiens) (UniProt O43683); conditions: Compound concentration 1000.0 nM
[8] = target: D(4) dopamine receptor (Homo sapiens) (UniProt P21917); conditions: Compound concentration 10.0 uM
[9] = target: Serine/threonine-protein kinase 4 (Homo sapiens) (UniProt Q13043); conditions: Compound concentration 1000.0 nM
[10] = target: GABA-A receptor; anion channel (Rattus norvegicus) (UniProt O09028+P15431+P18506+P18508+P19969+P20236+P23574+P23576+P28471+P28473+P30191+P62813+P63079+P63138+Q91ZM7+Q9ES14); conditions: Compound concentration 10.0 uM
[11] = target: Estrogen receptor (Homo sapiens) (UniProt P03372); experiment: Estrogen ER alpha (h) CEREP ligand profiling; conditions: filed as agonist, Compound concentration 10.0 uM
[12] = target: Endothelin-1 receptor (Homo sapiens) (UniProt P25101); experiment: ETA (h) CEREP ligand profiling; conditions: filed as agonist, Compound concentration 10.0 uM
[13] = target: Serine/threonine-protein kinase TAO1 (Homo sapiens) (UniProt Q7L7X3); conditions: Compound concentration 1000.0 nM
[14] = target: Ephrin type-A receptor 3 (Homo sapiens) (UniProt P29320); conditions: Compound concentration 1000.0 nM
[15] = target: Serine/threonine-protein kinase WNK1 (Homo sapiens) (UniProt Q9H4A3); conditions: Compound concentration 1000.0 nM
[16] = tested on: Receptor-type tyrosine-protein kinase FLT3 (Homo sapiens), P36888 [D835Y]; conditions: Compound concentration 1000.0 nM
[17] = target: 5-hydroxytryptamine receptor 4 (Homo sapiens) (UniProt Q13639); experiment: 5-HT4e (h) CEREP ligand profiling; conditions: filed as antagonist, Compound concentration 10.0 uM
[18] = tested on: Epidermal growth factor receptor (Homo sapiens), P00533 [G719C]; conditions: Compound concentration 1000.0 nM
[19] = target: Cyclin-dependent kinase-like 1 (Homo sapiens) (UniProt Q00532); conditions: Compound concentration 1000.0 nM
[20] = target: TGF-beta receptor type-2 (Homo sapiens) (UniProt P37173); conditions: Compound concentration 1000.0 nM
[21] = target: Interleukin-1 receptor-associated kinase 1 (Homo sapiens) (UniProt P51617); conditions: Compound concentration 1000.0 nM
[22] = target: NUAK family SNF1-like kinase 1 (Homo sapiens) (UniProt O60285); conditions: Compound concentration 1000.0 nM
[23] = target: Cyclin-dependent kinase 17 (Homo sapiens) (UniProt Q00537); conditions: Compound concentration 1000.0 nM
[24] = target: Ephrin type-A receptor 1 (Homo sapiens) (UniProt P21709); conditions: Compound concentration 1000.0 nM
[25] = target: Eukaryotic translation initiation factor 2-alpha kinase 1 (Homo sapiens) (UniProt Q9BQI3); conditions: Compound concentration 1000.0 nM
[26] = target: Testis-specific serine/threonine-protein kinase 3 (Homo sapiens) (UniProt Q96PN8); conditions: Compound concentration 1000.0 nM
[27] = target: D(1A) dopamine receptor (Homo sapiens) (UniProt P21728); conditions: Compound concentration 10.0 uM
[28] = target: T1, Alpha-2B adrenergic receptor (Homo sapiens) (UniProt P18089); experiment: alpha 2B (h) CEREP ligand profiling; conditions: filed as antagonist, Compound concentration 10.0 uM
T1 sequence (whole entry): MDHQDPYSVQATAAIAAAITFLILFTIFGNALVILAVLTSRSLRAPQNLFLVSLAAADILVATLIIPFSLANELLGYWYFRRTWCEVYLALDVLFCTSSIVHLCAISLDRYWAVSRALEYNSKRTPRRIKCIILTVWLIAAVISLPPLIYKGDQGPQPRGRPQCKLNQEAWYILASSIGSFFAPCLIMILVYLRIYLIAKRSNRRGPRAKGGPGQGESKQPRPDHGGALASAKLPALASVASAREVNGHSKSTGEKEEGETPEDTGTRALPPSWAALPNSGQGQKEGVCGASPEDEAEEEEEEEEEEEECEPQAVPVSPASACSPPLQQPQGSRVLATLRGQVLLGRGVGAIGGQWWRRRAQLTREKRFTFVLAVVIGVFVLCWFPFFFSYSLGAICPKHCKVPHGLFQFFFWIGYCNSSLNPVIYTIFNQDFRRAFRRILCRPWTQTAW

[29] = target: Mitogen-activated protein kinase kinase kinase 10 (Homo sapiens) (UniProt Q02779); conditions: Compound concentration 1000.0 nM
[30] = target: Mitogen-activated protein kinase kinase kinase 7 (Homo sapiens) (UniProt O43318); conditions: Compound concentration 1000.0 nM
[31] = tested on: ALK tyrosine kinase receptor (Homo sapiens), Q9UM73 [C1156Y]; conditions: Compound concentration 1000.0 nM
[32] = target: Tyrosine-protein kinase ABL2 (Homo sapiens) (UniProt P42684); conditions: Compound concentration 1000.0 nM
[33] = target: Activated CDC42 kinase 1 (Homo sapiens) (UniProt Q07912); conditions: Compound concentration 1000.0 nM
[34] = target: Receptor tyrosine-protein kinase erbB-2 (Homo sapiens) (UniProt P04626); conditions: Compound concentration 1000.0 nM
[35] = target: Bone morphogenetic protein receptor type-1A (Homo sapiens) (UniProt P36894); conditions: Compound concentration 1000.0 nM
[36] = target: Mitogen-activated protein kinase kinase kinase 11 (Homo sapiens) (UniProt Q16584); conditions: Compound concentration 1000.0 nM
[37] = target: NUAK family SNF1-like kinase 2 (Homo sapiens) (UniProt Q9H093); conditions: Compound concentration 1000.0 nM
[38] = target: Sodium-dependent dopamine transporter (Homo sapiens, UniProt Q01959); experiment: dopamine transporter (h) CEREP ligand profiling; conditions: filed as antagonist, Compound concentration 10.0 uM
Sequence of Sodium-dependent dopamine transporter (Q01959 whole entry): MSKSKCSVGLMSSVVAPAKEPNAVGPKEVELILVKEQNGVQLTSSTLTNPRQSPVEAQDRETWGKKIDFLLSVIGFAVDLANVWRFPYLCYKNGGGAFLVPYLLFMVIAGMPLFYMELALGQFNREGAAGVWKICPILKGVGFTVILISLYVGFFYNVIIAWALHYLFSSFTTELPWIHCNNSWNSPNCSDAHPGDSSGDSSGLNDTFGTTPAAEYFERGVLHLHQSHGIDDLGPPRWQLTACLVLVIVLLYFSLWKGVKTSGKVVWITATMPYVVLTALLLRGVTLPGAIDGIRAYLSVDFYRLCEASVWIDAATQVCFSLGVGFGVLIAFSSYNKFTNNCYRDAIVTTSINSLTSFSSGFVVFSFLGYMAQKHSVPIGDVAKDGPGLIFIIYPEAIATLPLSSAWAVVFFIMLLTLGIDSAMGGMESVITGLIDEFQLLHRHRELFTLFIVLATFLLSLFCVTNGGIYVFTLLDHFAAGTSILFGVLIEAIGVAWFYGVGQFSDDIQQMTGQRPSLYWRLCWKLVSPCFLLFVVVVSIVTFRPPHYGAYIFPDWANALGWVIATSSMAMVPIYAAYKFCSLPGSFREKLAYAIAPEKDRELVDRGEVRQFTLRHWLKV

Sequence of Bone morphogenetic protein receptor type-1A (Homo sapiens) (P36894 whole entry): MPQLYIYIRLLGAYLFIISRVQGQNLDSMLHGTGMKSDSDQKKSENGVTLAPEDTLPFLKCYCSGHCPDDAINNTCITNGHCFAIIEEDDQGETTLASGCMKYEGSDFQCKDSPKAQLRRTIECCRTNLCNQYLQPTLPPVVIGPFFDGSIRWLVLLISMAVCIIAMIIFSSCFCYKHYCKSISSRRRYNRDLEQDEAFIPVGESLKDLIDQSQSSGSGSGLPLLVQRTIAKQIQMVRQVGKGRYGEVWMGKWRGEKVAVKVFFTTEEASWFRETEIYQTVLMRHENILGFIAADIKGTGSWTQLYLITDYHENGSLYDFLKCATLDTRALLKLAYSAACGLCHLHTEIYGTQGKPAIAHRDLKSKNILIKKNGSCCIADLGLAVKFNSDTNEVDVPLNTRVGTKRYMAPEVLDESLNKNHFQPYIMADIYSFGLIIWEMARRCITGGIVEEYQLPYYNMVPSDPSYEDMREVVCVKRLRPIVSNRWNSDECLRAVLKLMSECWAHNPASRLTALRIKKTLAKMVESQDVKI
Sequence of ALK tyrosine kinase receptor (Homo sapiens), Q9UM73 [C1156Y] (Q9UM73 whole entry C1156Y, looked up): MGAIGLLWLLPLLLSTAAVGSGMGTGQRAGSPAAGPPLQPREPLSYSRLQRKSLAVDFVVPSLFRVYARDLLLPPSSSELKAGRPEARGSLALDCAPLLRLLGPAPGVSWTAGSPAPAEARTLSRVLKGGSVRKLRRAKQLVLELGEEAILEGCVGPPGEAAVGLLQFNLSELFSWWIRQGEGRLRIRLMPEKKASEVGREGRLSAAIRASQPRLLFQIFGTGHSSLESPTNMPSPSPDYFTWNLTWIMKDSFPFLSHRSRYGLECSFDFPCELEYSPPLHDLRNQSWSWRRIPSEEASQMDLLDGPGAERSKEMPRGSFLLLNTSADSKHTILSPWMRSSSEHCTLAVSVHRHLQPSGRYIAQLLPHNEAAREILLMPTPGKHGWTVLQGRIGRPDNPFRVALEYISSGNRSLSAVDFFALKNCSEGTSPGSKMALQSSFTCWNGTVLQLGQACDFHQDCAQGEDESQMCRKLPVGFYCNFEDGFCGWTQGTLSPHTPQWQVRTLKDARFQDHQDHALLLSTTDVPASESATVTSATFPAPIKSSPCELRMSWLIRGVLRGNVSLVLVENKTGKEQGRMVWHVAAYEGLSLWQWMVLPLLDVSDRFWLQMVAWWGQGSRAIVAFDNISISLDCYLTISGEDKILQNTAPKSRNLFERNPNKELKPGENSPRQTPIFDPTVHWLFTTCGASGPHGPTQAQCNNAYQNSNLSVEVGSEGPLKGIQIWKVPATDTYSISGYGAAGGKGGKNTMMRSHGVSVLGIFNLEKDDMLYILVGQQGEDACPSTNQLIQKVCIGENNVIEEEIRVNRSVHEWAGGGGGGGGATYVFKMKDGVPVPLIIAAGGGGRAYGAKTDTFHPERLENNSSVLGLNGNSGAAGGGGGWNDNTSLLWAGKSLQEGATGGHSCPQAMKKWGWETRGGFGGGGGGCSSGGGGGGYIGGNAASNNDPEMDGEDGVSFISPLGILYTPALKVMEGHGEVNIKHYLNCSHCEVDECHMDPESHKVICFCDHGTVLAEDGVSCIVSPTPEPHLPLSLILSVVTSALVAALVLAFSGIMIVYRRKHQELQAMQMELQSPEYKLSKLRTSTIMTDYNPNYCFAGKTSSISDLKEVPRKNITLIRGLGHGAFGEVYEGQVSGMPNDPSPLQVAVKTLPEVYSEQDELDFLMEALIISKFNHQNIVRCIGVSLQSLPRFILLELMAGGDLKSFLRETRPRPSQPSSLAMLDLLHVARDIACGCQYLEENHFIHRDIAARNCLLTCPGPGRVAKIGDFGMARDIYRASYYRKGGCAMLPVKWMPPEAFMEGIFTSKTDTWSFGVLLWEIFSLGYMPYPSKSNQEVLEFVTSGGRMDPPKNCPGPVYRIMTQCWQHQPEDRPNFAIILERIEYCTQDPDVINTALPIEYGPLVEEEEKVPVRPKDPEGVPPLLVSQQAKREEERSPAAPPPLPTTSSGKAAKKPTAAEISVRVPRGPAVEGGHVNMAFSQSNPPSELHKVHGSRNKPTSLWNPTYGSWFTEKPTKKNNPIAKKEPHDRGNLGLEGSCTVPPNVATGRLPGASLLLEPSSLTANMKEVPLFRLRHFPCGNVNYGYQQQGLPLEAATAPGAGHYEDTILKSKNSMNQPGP
Sequence of Mitogen-activated protein kinase kinase kinase 11 (Homo sapiens) (Q16584 whole entry, looked up): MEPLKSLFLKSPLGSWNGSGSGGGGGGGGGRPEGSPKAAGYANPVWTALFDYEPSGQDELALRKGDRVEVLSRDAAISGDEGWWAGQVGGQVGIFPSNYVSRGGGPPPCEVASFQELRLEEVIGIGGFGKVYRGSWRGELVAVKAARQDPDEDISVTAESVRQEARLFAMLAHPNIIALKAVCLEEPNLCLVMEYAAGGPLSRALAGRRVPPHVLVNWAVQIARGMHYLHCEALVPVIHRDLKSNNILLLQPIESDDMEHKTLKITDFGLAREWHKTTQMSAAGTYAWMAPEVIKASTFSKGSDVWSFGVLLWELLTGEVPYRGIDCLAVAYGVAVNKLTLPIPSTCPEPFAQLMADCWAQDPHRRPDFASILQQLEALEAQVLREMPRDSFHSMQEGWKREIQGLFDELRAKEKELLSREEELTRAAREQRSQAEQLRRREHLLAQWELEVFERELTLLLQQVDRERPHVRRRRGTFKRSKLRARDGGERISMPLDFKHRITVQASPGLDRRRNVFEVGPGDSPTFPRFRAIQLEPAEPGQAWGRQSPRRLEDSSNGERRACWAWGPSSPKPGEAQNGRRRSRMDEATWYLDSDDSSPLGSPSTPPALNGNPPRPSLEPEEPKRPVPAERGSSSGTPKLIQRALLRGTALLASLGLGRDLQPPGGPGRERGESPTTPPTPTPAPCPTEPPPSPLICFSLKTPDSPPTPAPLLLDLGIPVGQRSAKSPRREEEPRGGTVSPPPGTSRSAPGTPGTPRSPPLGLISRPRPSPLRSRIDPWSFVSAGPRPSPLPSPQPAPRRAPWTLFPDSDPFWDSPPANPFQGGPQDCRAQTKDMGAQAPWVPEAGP
Sequence of Mitogen-activated protein kinase kinase kinase 7 (Homo sapiens) (O43318 whole entry): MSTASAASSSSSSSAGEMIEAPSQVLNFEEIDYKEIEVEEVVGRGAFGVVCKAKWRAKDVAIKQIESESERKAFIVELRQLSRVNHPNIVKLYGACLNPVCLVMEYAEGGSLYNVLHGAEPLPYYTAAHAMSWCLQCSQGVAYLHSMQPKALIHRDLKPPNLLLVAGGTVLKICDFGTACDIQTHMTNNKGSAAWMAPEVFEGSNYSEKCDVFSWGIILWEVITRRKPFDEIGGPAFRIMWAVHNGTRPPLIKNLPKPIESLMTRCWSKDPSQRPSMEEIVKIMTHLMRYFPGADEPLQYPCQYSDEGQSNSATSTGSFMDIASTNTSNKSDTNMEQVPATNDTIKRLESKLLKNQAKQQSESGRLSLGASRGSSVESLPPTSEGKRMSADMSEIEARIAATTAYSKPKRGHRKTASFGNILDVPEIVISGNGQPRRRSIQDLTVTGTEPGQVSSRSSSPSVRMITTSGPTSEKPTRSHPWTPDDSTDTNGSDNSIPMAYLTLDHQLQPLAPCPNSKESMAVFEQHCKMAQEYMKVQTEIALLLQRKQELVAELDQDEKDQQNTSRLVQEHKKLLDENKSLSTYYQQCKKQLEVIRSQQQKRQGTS
Sequence of D(1A) dopamine receptor (Homo sapiens) (P21728 whole entry): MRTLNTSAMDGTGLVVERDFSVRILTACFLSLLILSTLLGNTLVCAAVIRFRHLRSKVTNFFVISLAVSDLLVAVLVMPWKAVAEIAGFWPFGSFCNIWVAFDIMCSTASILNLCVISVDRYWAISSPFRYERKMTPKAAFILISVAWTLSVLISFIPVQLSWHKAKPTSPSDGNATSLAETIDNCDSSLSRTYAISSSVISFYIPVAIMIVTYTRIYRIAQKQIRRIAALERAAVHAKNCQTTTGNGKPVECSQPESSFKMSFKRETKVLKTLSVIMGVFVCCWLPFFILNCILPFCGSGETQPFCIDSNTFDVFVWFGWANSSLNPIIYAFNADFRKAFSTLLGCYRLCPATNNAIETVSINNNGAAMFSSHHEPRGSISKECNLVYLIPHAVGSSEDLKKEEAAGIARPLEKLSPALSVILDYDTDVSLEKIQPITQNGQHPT
Sequence of 5-hydroxytryptamine receptor 4 (Homo sapiens) (Q13639 whole entry): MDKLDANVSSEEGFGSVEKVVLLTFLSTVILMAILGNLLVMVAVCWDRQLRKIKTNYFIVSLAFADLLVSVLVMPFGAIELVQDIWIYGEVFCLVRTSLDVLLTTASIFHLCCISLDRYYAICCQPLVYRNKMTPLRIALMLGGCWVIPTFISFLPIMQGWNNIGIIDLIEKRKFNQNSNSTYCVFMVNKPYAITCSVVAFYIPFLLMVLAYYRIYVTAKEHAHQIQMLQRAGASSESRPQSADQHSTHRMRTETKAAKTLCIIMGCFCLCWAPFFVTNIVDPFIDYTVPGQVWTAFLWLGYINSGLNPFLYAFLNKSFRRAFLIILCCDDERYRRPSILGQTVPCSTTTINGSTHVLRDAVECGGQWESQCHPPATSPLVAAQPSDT

CNC(=O)Nc1ccc2c(c1)[C@@]1(CC2)OC(=O)N(CC(=O)N(Cc2ccc(F)cc2)[C@@H](C)C(F)(F)F)C1=O [A-486]
inactive: residual activity [1] 89% | residual activity [2] 100% | residual activity [3] 100% | residual activity [4] 82% | residual activity [5] 96% | residual activity [6] 91% | residual activity [7] 77% | inhibition [8] 8.38% | residual activity [9] 100% | inhibition [10] 9.54% | inhibition [11] -10% | inhibition [12] -1% | residual activity [13] 97% | residual activity [14] 100% | residual activity [15] 79% | residual activity [16] 96% | inhibition [17] 9% | residual activity [18] 100% | residual activity [19] 91% | residual activity [20] 95% | residual activity [21] 88% | residual activity [22] 88% | residual activity [23] 88% | residual activity [24] 100% | residual activity [25] 96% | residual activity [26] 100% | inhibition [27] 0.29% | inhibition [28] 4% | residual activity [29] 73% | residual activity [30] 81% | residual activity [31] 100% | residual activity [32] 84% | residual activity [33] 87% | residual activity [34] 98% | residual activity [35] 100% | residual activity [36] 91% | residual activity [37] 77% | inhibition [38] 27%

CNC(=O)Nc1ccc2c(c1)CC[C@@]21OC(=O)N(CC(=O)N(Cc2ccc(F)cc2)[C@@H](C)C(F)(F)F)C1=O [A-485]
inactive: residual activity [1] 95% | residual activity [2] 76% | residual activity [3] 91% | residual activity [4] 74% | residual activity [5] 95% | residual activity [6] 80% | residual activity [7] 66% | inhibition [8] 7.26% | residual activity [9] 100% | inhibition [10] 8.97% | inhibition [11] 5% | inhibition [12] 3% | residual activity [13] 94% | residual activity [14] 100% | residual activity [15] 93% | residual activity [16] 100% | inhibition [17] 10% | residual activity [18] 97% | residual activity [19] 86% | residual activity [20] 90% | residual activity [21] 71% | residual activity [22] 94% | residual activity [23] 96% | residual activity [24] 88% | residual activity [25] 80% | residual activity [26] 88% | inhibition [27] 9.97% | inhibition [28] -4% | residual activity [29] 57% | residual activity [30] 77% | residual activity [31] 88% | residual activity [32] 88% | residual activity [33] 90% | residual activity [34] 100% | residual activity [35] 91% | residual activity [36] 73% | residual activity [37] 74% | inhibition [38] 94%
